This series is described as follows: Potentiometric titration of DPDP (pH 11.2 to 2.0), protonation sites. The note with it: at a pH of 3 and above. It is filed as physicochemical. On the procedure:
The compound DPDP was studied potentiometrically from pH 11.2 to 2.0. Data sets were collected on a custom-built automatic potentiometric titration apparatus composed of a METROHM 655 DOSIMAT automatic buret, a FISHER ACCUMET pH meter with a CORNING calomel combination electrode, a custom-blown water jacketed titration cell, a BRINKMAN LAUDA K-2/R constant temperature bath and a COMMODORE 64 computer. […] Data analysis was performed on an IBM-AT computer using the least squares program, BETA (Harris, W. et al, supra), and the data analysis program, HANDNBAR (Harris, W. et al, supra). […] All solutions were made from distilled, deionized water that was further purified on a MILLI-Q cartridge system, degassed, and then kept under an atmosphere of argon which had been scrubbed for CO2 and O2.

As for `Cc1ncc(COP(=O)(O)O)c(CN(CCN(CC(=O)O)Cc2c(COP(=O)(O)O)cnc(C)c2O)CC(=O)O)c1O` [DPDP, N,N'-bis-(pyridoxal-5-phosphate)-ethylenediamine-N,N'-diacetic acid], the “Protonation / charge state of the ligand (dissociation constants assigned to the protonation sites)” value is “anionic and possesses deprotonated metal binding sites”.

Values taken from patent publication US4842845A, “Radioactive metal chelates for dipyridoxyl phosphate” (Salutar, Inc., priority 1987, dated 1989).
